Measured values published in patent US7741124B2, “Detection procedures for fibrinogen and/or fibrinogen derivatives” (priority 2003, dated 2010).
pIC50: −log10 of the molar value.

Experiments:
Assay type in all cases: biochemical
fibrinogen [1] = biological target: T1, fibrinogen (Homo sapiens, UniProt P02671+P02675+P02679); test: FIFTA of chloramine-T oxidized / EDTA-supplemented plasma; details: 60 min RT, P-Pool and EDTA supplemented P-Pool; read-out: chloramine-T concentration that inactivates 50% of fibrinogen in the FIFTA
T1 construct: pooled patient plasma (P-Pool, n=32 single plasmas); from tissue; host or cells: pooled citrated patient plasma (P-Pool, Fbgen-Pool-Plasma)
T1 sequence (P02671 20-644 isoform P02671-2 limits assumed): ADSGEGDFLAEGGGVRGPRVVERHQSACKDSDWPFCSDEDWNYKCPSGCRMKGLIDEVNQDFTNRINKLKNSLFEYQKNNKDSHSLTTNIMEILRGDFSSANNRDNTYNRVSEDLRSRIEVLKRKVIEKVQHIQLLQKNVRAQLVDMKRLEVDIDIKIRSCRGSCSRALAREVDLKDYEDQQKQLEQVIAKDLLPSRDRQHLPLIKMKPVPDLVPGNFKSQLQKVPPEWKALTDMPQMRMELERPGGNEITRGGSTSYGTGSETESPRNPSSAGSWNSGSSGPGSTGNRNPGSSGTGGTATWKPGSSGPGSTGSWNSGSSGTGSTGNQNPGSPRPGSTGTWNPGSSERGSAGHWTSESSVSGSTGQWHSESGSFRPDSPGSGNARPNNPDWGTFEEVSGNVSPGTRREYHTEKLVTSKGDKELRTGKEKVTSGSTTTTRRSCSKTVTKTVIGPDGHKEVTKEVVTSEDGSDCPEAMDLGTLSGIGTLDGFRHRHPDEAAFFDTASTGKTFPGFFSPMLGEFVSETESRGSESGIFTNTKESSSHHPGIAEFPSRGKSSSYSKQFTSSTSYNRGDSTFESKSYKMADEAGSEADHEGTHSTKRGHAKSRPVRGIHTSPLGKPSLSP
T1 sequence (P02675 31-491): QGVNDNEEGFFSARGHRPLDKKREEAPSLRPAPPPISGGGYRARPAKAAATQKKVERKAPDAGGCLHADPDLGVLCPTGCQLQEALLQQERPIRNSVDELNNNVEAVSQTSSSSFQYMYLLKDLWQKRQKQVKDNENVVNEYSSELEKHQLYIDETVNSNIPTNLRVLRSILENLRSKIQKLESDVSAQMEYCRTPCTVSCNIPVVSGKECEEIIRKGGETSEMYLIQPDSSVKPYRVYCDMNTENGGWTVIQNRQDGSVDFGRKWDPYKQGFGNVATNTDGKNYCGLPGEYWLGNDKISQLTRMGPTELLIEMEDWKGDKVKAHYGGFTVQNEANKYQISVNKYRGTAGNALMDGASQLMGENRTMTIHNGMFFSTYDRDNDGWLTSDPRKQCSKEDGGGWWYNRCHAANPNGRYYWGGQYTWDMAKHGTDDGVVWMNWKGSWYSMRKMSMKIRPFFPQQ
T1 sequence (P02679 27-437 isoform P02679-2 limits assumed): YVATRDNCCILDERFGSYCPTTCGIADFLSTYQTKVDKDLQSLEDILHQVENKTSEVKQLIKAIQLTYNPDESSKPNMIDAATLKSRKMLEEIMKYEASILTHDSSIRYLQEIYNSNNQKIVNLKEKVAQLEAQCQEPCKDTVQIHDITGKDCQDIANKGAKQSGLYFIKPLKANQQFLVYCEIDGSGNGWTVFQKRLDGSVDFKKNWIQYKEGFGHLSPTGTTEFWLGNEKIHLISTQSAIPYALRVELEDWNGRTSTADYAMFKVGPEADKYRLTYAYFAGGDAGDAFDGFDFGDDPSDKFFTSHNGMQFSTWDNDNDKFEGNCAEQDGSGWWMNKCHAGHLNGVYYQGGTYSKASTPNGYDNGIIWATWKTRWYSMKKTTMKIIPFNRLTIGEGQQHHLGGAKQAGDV
Method: The absorption at 405 nm is immediately measured (base value) and exactly after 5 min, if the reaction is performed at room temperature (23° C.). If the reaction is performed at 37° C., the second value is measured after 2 min. A microtiterplate reader (Milenia, DPC, Los Angeles, USA) is used. The increase in absorption (ΔA) is determined and the results are standardized against a pooled plasma of known, preferably of 100% of norm, fibrinogen-activity (Table 1).
(§1) 25 μl P-Pool or P-Pool supplemented with 8.6 mM (3.2 g/l) EDTA were incubated with 25 μl 0-89 mM chloramine-T® in PBS for 60 min at RT. Then the FIATA and the FIFTA were performed. For the FIATA, 25 μl PBS were added and the absorbance at 405 nm was determined (base value). 50 μl 4.4 mM vancomycin in PBS were added and after 1 min (RT) the absorbance at 405 nm was determined again (Table 1). […] 100% control=P-Pool without oxidant.
(§2) 25 μl P-Pool was incubated with 25 μl PBS or with 25 μl 2 mM CT in PBS. After 60 min RT, 25 μl 0-172 mM EDTA in PBS was added. After 5 min RT the FIATA and the FIFTA were performed as indicated in 2.7.

fibrinogen [2] = test: FIATA (vancomycin reactivity) of chloramine-T oxidized / EDTA-supplemented plasma; details: EDTA-plasmas oxidized at 10-20 mM chloramine-T
Method: To 25 μl plasma 50 μl PBS are added and the absorbance (405 nm) is determined (base value). Then 50 μl 4.4 mM vancomycin in PBS are added. The absorbance at 405 nm is determined after 2 min, if the reaction is performed at room temperature (23° C.). If the reaction is performed at 37° C., the second value is determined after 1 min. A microtiterplate reader (Milenia, DPC, Los Angeles, USA) is used. The increase in absorption (ΔA) is determined and the results are standardized against a pooled plasma of known, preferably of 100% of norm, fibrinogen-concentration, and against 0.9% NaCl (zero-value of turbidity) (Table 2).
as §1, §2

[3] = biological target: T2, fibrinogen in human plasma (Homo sapiens, UniProt P02671+P02675+P02679); test: Inactivation of fibrinogen by vancomycin or chloramine-T (FIFTA read-out); details: 15 min 37° C. incubation in plasma, then FIFTA; read-out: IC50 against plasmatic fibrinogen
T2 construct: 200 μl of 256% of norm active fibrinogen in P-Pool; from tissue; host or cells: pooled citrated human patient plasma (P-Pool / Fbgen-Pool)
T2 sequence (P02671 20-629 isoform P02671-2 limits assumed): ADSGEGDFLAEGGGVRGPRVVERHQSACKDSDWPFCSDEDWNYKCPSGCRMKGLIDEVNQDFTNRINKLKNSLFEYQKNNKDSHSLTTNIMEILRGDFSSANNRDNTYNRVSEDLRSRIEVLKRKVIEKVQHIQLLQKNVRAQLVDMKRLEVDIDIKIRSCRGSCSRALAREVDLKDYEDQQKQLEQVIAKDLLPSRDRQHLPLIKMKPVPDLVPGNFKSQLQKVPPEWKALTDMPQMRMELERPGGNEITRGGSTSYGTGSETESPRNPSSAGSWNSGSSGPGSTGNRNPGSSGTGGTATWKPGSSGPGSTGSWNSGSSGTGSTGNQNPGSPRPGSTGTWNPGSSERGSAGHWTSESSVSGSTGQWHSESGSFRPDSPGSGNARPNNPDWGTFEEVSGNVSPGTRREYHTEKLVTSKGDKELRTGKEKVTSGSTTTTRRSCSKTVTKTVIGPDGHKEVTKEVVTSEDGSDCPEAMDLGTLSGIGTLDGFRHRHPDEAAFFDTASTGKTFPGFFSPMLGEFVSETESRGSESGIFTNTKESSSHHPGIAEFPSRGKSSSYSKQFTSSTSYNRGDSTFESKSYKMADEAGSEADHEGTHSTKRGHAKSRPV
T2 sequence (P02675 31-491): T1 sequence (P02675 31-491)
T2 sequence (P02679 27-437 isoform P02679-2 limits assumed): T1 sequence (P02679 27-437 isoform P02679-2 limits assumed)
Method: 200 μl of 256% of norm active fibrinogen in P-Pool were incubated with 25 μl 0-100 mM vancomycin or 0-100 mM chloramine-T® in aqua dest. for 15 min (37° C.). 50 μl samples of these reaction mixtures were withdrawn and incubated with 100 μl 200 mIU/ml thrombin, 400 μg/ml Polybrene®, 6% BSA-PBS. The results were standardized by simultaneous analysis of 144% of norm active fibrinogen in P-Pool.

thrombin [4] = biological target: T3, thrombin (Bos taurus, UniProt P00735); test: Inhibitory concentration 50% (IC50) of heparin against thrombin, FIFTA turbidity without Polybrene; details: FIFTA system without Polybrene
T3 construct: 100 μl 200 mIU/ml thrombin in 6% BSA-PBS (without Polybrene®)
Method: 50 μl 100% Pool were added to 10 μl 0-160 IU/ml heparin. 100 μl 200 mIU/ml thrombin in 6% BSA-PBS (without Polybrene®) were added and the increase in absorbance at 405 nm was followed.

thrombin [5] = biological target: T3, thrombin; test: Inhibitory time point 50% (ITP50) of 10 IU/ml heparin-thrombin interaction; details: 10 IU/ml final heparin
Method: 50 μl P-Pool were incubated with 100 μl 200 miU/ml thrombin in 6% BSA-PBS (without Polybrene®). At 0 min (prior to thrombin addition) and 0.5-11 min reaction time (at RT) 10 μl 160 IU/ml heparin in 6% BSA-PBS was added (final heparin conc. in plasma+thrombin reagent=10 IU/ml; this heparin conc. increased the absorbance by 20 mA; all test results were corrected by this heparin induced turbidity increase). The turbidity increase at 405 nm was determined immediately after each heparin addition step and as a function of incubation time.
To determine the heparin addition time point (at RT) that is needed to decrease the 5 min, 10 min, 15 min or 20 min turbidity increase by 50% (inhibitory time point 50%=ITP), 50 μl P-Pool were incubated with 100 μl 200 mIU/ml thrombin in 6% BSA-PBS (without Polybrene®). After 0 s (prior to thrombin addition) and 10-140 s (in 10 s intervals) 10 μl 160 IU/ml heparin in 6% BSA-PBS were added. The turbidity increase at 405 nm as a function of incubation time (3-20 min) was determined.

pIC50 (fibrinogen [1])	pIC50 [3]	heparin concentrations that completely inhibit thrombin (thrombin [4])	time window in which heparin can inhibit fibrin generation (thrombin [5]; RT)	time point of heparin addition that results into a 50% decrease of ΔA (ITP50) (thrombin [5]; ΔA at 5-20 min incubation time (RT))	Molecule	increase of reactivity with vancomycin, % of the citrate control value (fibrinogen [2])
2.70	~2.70				Cc1ccc(S(=O)(=O)[N-]Cl)cc1.[Na+] [chloramine-T®, chloramine-T]	40%
		≥ 0.63 IU/ml	≤ 2 min	approximately 30 s	heparin	
